Results on two molecules are retold here after article PMC10426190 (Breast Cancer Research : BCR, 2023).

Like-named read-outs stand apart in the source and are kept apart here.

The test system of data set [1] is GREB1, AGR3 transcription in T47D, EFM-19, HCC1500. Description: ER pathway activity, RT-QPCR of GREB1 and AGR3. The format is cell-based, human. The conditions noted are these: 1 μM, 1 nM E2, 24 h. On the procedure: HCC1500, T47D, and EFM-19 were cultured in hormone deprivation media with 10% charcoal-stripped FBS for at least 3 days before assay. Trypsinized cells were seeded in a 12-well plate, stimulated with 1 nM E2, and treated with/without 1 μM compounds for 24 h. Total RNA was extracted using QIAGEN RNeasy Plus Mini Kit (Qiagen), according to the manufacturer’s protocol. The concentration of RNA samples was determined using NanoDrop 8000 (Thermo Scientific). SYBR Green expression assay (Qiagen#204154) was used to quantify GREB1 (Forward primer: […]; reverse primer: […]), AGR3 (Forward primer: […]; reverse primer: […]) and the house-keeping genes actin (OriGene#HP204660). The relative quantities were determined using ΔΔ threshold cycle (ΔΔCt), according to the manufacturer’s instructions (Applied Biosystems).
MCF7 with hormone-deprived pre-treatment were administrated ER ligands or not present with 1 nM E2 stimulation for 24 h incubation in a 12-well plate. Total mRNA was isolated from treated cells and sequenced on an Illumina HiSeq X Ten platform. FPKM of each gene was calculated using Cufflinks and Differential expression genes analysis by using the DESeq (2012) R package. Four separate clusters were obtained. […] Endometrial height was assessed from the basement membrane to the luminal border (scale bar in green lines: 200 μm), Arrows indicate the uterine epithelium (e).

Data set [2] relates to ER + breast cancer cell lines. Description: Proliferation assay across ER-positive cell panel. The conditions noted are these: 7 days. The format is cell-based, human. On the procedure: (§1) Trypsinized cells were dispensed into 384-well plates in culture media and after overnight incubation cells were treated with compounds for 7 days. Cell viability was assessed using CellTiter-Glo (Promega) according to the manufacturer’s protocol and relative luminescence units (RLU) were measured using an Envision Multilabel Reader (Perkin Elmer). […] IC50 and Imax were analyzed with IDBS XLfit.
MCF7 cells were seeded in a 384-well plate and linear-dilution compounds were administrated in duplicate for each treatment. After incubation for 24 h, Cells in the assay pate were treated as described in methods. ERα levels were quantified by immunofluorescence assay. […] Data are given as mean ± SEM. b The maximal ERα degradation across an ER-positive cell panel was evaluated in an In-cell Western assay. Cells were dispended into 96-well plates and incubated for 24 h with compounds (100 nM) treatment. […] Cells were seeded in 384-well plates and treated with linear-dilution compounds for 7 days of incubation. Cell viability was assessed using CellTiter-Glo. Cell growth inhibition is presented as a percentage of CellTiterGlo activity relative to the vehicle control. […] WT (e) and ER. Y537S cells (f). […] Then cells in each well were collected and the targeting proteins in lysate supernatant were detected by WB

The subject of a further data set is MCF-7 WT cells. The data set is described as follows: Viability assay (CellTiter-Glo, 7 days), MCF-7 WT. The format is cell-based, human. On the procedure:
as §1
(§2) Statistical and graphical presentations were performed using IDBS XLfit and GraphPad Prism 9. For cell proliferation assays, the IC50 was calculated by fitting a dose–response curve using a nonlinear regression model with a log(inhibitor) vs response curve fit. […] P-values < 0.05 were considered statistically significant.

The test system of data set [3] is MCF-7 subcutaneous tumors. Description: MCF-7 subcutaneous xenograft mouse model. The format is in vivo. The conditions noted are these: MCF7 sc, 250 mg/kg subcutaneous once a week. On the procedure:
Female Balb/c nude mice were used for MCF-7 and T47D tumor subcutaneous xenograft studies. At least one day before tumor cell implantation, estrogen pellets (0.18 mg, 17β-Estradiol, 60-day release, Innovative Research of America, Sarasota, FL, USA) were implanted subcutaneously. Each mouse was subcutaneously injected with 1 × 10^7 MCF-7 (ECACC) or T47D cells in the right flank, and tumor growth was monitored. The long diameter (a) and the short diameter (b) of the tumor were measured using a caliper, and the tumor volume was calculated using the following formula: V = 0.5 × a × b^2. […] Tumor volumes were evaluated twice per week. Treatment tolerability was assessed by body weight measurements and frequent observation for clinical signs of treatment-related adverse effects.
as §2

The test system of another data set is advanced breast cancer. The conditions noted are these: cited from earlier work; for PFS: second-line.

For the molecule `CC/C(=C(\c1ccc(O)cc1)c1ccc(OCCN(C)C)cc1)c1ccccc1` [4-OH-tamoxifen], the AGR3 transcription result in data set [1] (EFM-19 and HCC1500) is “significant increase”. Further, the “anti-proliferation potency in ER + cell panel” value in data set [2] is reported as “less potent than all tested SERDs”.
Take `C[C@]12CC[C@@H]3c4ccc(O)cc4C[C@@H](CCCCCCCCC[S+]([O-])CCCC(F)(F)C(F)(F)F)[C@H]3[C@@H]1CC[C@@H]2O` (some centres unmarked) [Fulvestrant]: in the data set with MCF-7 WT cells, the “Viability assay Emax [% Ful.]” value amounted to 97.88 % Ful. Further, in the data set with MCF-7 WT cells, the “Viability assay Emax [% Veh.]” value came out at 49.60 % Veh. Also, the half-inhibitory concentration (IC50) (as a rule, the concentration at which inhibition is half-maximal) with MCF-7 WT cells (Homo sapiens, MCF7, 168 h) turned out to be 400 pM. In addition, the “AGR3 and GREB1 transcription” value in data set [1] (T47D, EFM-19, and HCC1500) is “significantly downregulated”. The TGI (usually the reduction of tumour growth relative to the control group) in data set [3] amounted to 28.84%. The OS in the data set with advanced breast cancer (250 mg dose regimen ref 16) is on record as 22.3 months; with advanced breast cancer (Fulvestrant HD 500 mg ref 16) it was 26.4 months. Besides, the PFS is listed as 6.5 months in the data set on advanced breast cancer (higher value of 6.5 vs. 5.5 (Fulvestrant HD 500 mg) ref 16) and 5.5 months with advanced breast cancer (lower value of 6.5 vs. 5.5 (250 mg dose regimen) ref 16).
